Results from PubChem BioAssay (NCI).
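96-well plates; 48 h exposure; 5 concentrations. Endpoints by linear interpolation between flanking doses. Not reached: highest tested concentration assigned. At the GI50, growth is halved. TGI: concentration producing complete growth inhibition.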

Experiments:
Experiment in all cases: NCI anticancer screen, dose series, 48 h
[1] = tested on: 786-0 renal
[2] = tested on: A498 renal
[3] = tested on: A549 NSCLC
[4] = tested on: ACHN renal
[5] = tested on: BT-549 breast
[6] = tested on: CAKI-1 renal
[7] = tested on: CCRF-CEM leukemia
[8] = tested on: COLO 205 colon
[9] = tested on: DU-145 prostate
[10] = tested on: EKVX NSCLC
[11] = tested on: HCC-2998 colon
[12] = tested on: HCT-116 colon
[13] = tested on: HCT-15 colon
[14] = tested on: HL-60(TB) leukemia
[15] = tested on: HOP-62 NSCLC
[16] = tested on: HS 578T breast
[17] = tested on: HT29 colon
[18] = tested on: IGROV1 ovarian
[19] = tested on: K-562 leukemia
[20] = tested on: KM12 colon
[21] = tested on: LOX IMVI melanoma
[22] = tested on: M14 melanoma
[23] = tested on: MALME-3M melanoma
[24] = tested on: MCF7 breast
[25] = tested on: MDA-MB-231 breast
[26] = tested on: MDA-MB-435
[27] = tested on: MOLT-4 leukemia
[28] = tested on: NCI-H226 lung
[29] = tested on: NCI-H23 lung
[30] = tested on: NCI-H460 lung
[31] = tested on: NCI-H522 lung
[32] = tested on: NCI/ADR-RES ovarian
[33] = tested on: OVCAR-3 ovarian
[34] = tested on: OVCAR-4 ovarian
[35] = tested on: OVCAR-5 ovarian
[36] = tested on: OVCAR-8 ovarian
[37] = tested on: PC-3 prostate
[38] = tested on: RPMI-8226 leukemia
[39] = tested on: RXF 393 renal
[40] = tested on: SF-268 CNS
[41] = tested on: SF-295 CNS
[42] = tested on: SF-539 CNS
[43] = tested on: SK-MEL-2 melanoma
[44] = tested on: SK-MEL-28 melanoma
[45] = tested on: SK-MEL-5 melanoma
[46] = tested on: SK-OV-3 ovarian
[47] = tested on: SN12C renal
[48] = tested on: SNB-19 CNS
[49] = tested on: SNB-75 CNS
[50] = tested on: SR leukemia
[51] = tested on: SW-620 colon
[52] = tested on: T-47D breast
[53] = tested on: TK-10 renal
[54] = tested on: U251 CNS
[55] = tested on: UACC-257 melanoma
[56] = tested on: UACC-62 melanoma
[57] = tested on: UO-31 renal
[58] = tested on: HOP-92 NSCLC

## CS(=O)(=O)c1ccc(Oc2cc(F)cc(C#N)c2)c2c1[C@H](O)[C@H](F)[C@@H]2F
[1]
  GI50: > 100 µM
  TGI: > 100 µM
[2]
  GI50: 4.86 µM
  TGI: > 100 µM
[3]
  GI50: > 100 µM
  TGI: > 100 µM
[4]
  GI50: > 100 µM
  TGI: > 100 µM
[5]
  GI50: > 100 µM
  TGI: > 100 µM
[6]
  GI50: > 100 µM
  TGI: > 100 µM
[7]
  GI50: > 100 µM
  TGI: > 100 µM
[8]
  GI50: > 100 µM
  TGI: > 100 µM
[9]
  GI50: > 100 µM
  TGI: > 100 µM
[10]
  GI50: > 100 µM
  TGI: > 100 µM
[11]
  GI50: > 100 µM
  TGI: > 100 µM
[12]
  GI50: > 100 µM
  TGI: > 100 µM
[13]
  GI50: > 100 µM
  TGI: > 100 µM
[14]
  GI50: > 100 µM
  TGI: > 100 µM
[15]
  GI50: > 100 µM
  TGI: > 100 µM
[16]
  GI50: > 100 µM
  TGI: > 100 µM
[17]
  GI50: > 100 µM
  TGI: > 100 µM
[18]
  GI50: > 100 µM
  TGI: > 100 µM
[19]
  GI50: > 100 µM
  TGI: > 100 µM
[20]
  GI50: > 100 µM
  TGI: > 100 µM
[21]
  GI50: > 100 µM
  TGI: > 100 µM
[22]
  GI50: > 100 µM
  TGI: > 100 µM
[23]
  GI50: > 100 µM
  TGI: > 100 µM
[24]
  GI50: > 100 µM
  TGI: > 100 µM
[25]
  GI50: > 100 µM
  TGI: > 100 µM
[26]
  GI50: > 100 µM
  TGI: > 100 µM
[27]
  GI50: > 100 µM
  TGI: > 100 µM
[28]
  GI50: > 100 µM
  TGI: > 100 µM
[29]
  GI50: > 100 µM
  TGI: > 100 µM
[30]
  GI50: > 100 µM
  TGI: > 100 µM
[31]
  GI50: > 100 µM
  TGI: > 100 µM
[32]
  GI50: > 100 µM
  TGI: > 100 µM
[33]
  GI50: > 100 µM
  TGI: > 100 µM
[34]
  GI50: > 100 µM
  TGI: > 100 µM
[35]
  GI50: > 100 µM
  TGI: > 100 µM
[36]
  GI50: > 100 µM
  TGI: > 100 µM
[37]
  GI50: > 100 µM
  TGI: > 100 µM
[38]
  GI50: > 100 µM
  TGI: > 100 µM
[39]
  GI50: > 100 µM
  TGI: > 100 µM
[40]
  GI50: > 100 µM
  TGI: > 100 µM
[41]
  GI50: > 100 µM
  TGI: > 100 µM
[42]
  GI50: > 100 µM
  TGI: > 100 µM
[43]
  GI50: > 100 µM
  TGI: > 100 µM
[44]
  GI50: > 100 µM
  TGI: > 100 µM
[45]
  GI50: > 100 µM
  TGI: > 100 µM
[46]
  GI50: > 100 µM
  TGI: > 100 µM
[47]
  GI50: > 100 µM
  TGI: > 100 µM
[48]
  GI50: > 100 µM
  TGI: > 100 µM
[49]
  GI50: > 100 µM
  TGI: > 100 µM
[50]
  GI50: > 100 µM
  TGI: > 100 µM
[51]
  GI50: > 100 µM
  TGI: > 100 µM
[52]
  GI50: > 100 µM
  TGI: > 100 µM
[53]
  GI50: > 100 µM
  TGI: > 100 µM
[54]
  GI50: > 100 µM
  TGI: > 100 µM
[55]
  GI50: > 100 µM
  TGI: > 100 µM
[56]
  GI50: > 100 µM
  TGI: > 100 µM
[57]
  GI50: > 100 µM
  TGI: > 100 µM

## CCc1ccc(-c2nnc(COc3ccc(-c4nc5ccc(C)cc5[nH]4)cc3OC)o2)cc1
[2]
  GI50: 1.97 µM
  TGI: 4.72 µM
[3]
  GI50: 4.21 µM
  TGI: > 100 µM
[4]
  GI50: 1.78 µM
  TGI: 3.19 µM
[5]
  GI50: 1.96 µM
  TGI: 4.34 µM
[6]
  GI50: 2.07 µM
  TGI: 4.92 µM
[7]
  GI50: 3.06 µM
  TGI: > 100 µM
[8]
  GI50: 8.39 µM
  TGI: 96 µM
[9]
  GI50: 5.98 µM
  TGI: > 100 µM
[10]
  GI50: 4.14 µM
  TGI: > 100 µM
[11]
  GI50: 11.4 µM
  TGI: > 100 µM
[12]
  GI50: 3.19 µM
  TGI: 11.2 µM
[13]
  GI50: 2.82 µM
  TGI: 10.3 µM
[14]
  GI50: 2.01 µM
  TGI: 4.26 µM
[15]
  GI50: 2.44 µM
  TGI: 6.46 µM
[58]
  GI50: 2.07 µM
  TGI: 5.83 µM
[16]
  GI50: 2.07 µM
  TGI: 5.01 µM
[17]
  GI50: 3.66 µM
  TGI: > 100 µM
[18]
  GI50: 4.94 µM
  TGI: > 100 µM
[19]
  GI50: 3.12 µM
  TGI: > 100 µM
[20]
  GI50: 5.39 µM
  TGI: > 100 µM
[21]
  GI50: 1.98 µM
  TGI: 4.25 µM
[22]
  GI50: 2.27 µM
  TGI: 5.84 µM
[23]
  GI50: 1.56 µM
  TGI: 3.11 µM
[24]
  GI50: 3.36 µM
  TGI: > 100 µM
[25]
  GI50: 2.05 µM
  TGI: 4.87 µM
[26]
  GI50: 2.51 µM
  TGI: 6.97 µM
[27]
  GI50: 3.26 µM
  TGI: > 100 µM
[28]
  GI50: 2.01 µM
  TGI: 4.28 µM
[29]
  GI50: 4.52 µM
  TGI: 54.4 µM
[30]
  GI50: 3.38 µM
  TGI: 18.4 µM
[31]
  GI50: 3.1 µM
  TGI: 25.2 µM
[32]
  GI50: 3.28 µM
  TGI: 37.5 µM
[33]
  GI50: 2.23 µM
  TGI: 4.49 µM
[34]
  GI50: 1.74 µM
  TGI: 3.53 µM
[35]
  GI50: 5.21 µM
  TGI: > 100 µM
[36]
  GI50: 5.08 µM
  TGI: > 100 µM
[37]
  GI50: 2.96 µM
  TGI: > 100 µM
[38]
  GI50: 2.26 µM
  TGI: 5.75 µM
[39]
  GI50: 1.75 µM
  TGI: 3.29 µM
[40]
  GI50: 4.47 µM
  TGI: > 100 µM
[41]
  GI50: 2.33 µM
  TGI: 5.75 µM
[42]
  GI50: 1.7 µM
  TGI: 3.21 µM
[43]
  GI50: 2.71 µM
  TGI: 7.81 µM
[44]
  GI50: 2.36 µM
  TGI: 6.66 µM
[45]
  GI50: 1.97 µM
  TGI: 4.09 µM
[46]
  GI50: 3.29 µM
  TGI: 11.1 µM
[47]
  GI50: 2.2 µM
  TGI: 5.52 µM
[48]
  GI50: 4.63 µM
  TGI: > 100 µM
[49]
  GI50: 1.41 µM
  TGI: 2.96 µM
[50]
  GI50: 2.08 µM
  TGI: 5.22 µM
[51]
  GI50: 3.75 µM
  TGI: 62.4 µM
[52]
  GI50: 2.15 µM
  TGI: 5.22 µM
[53]
  GI50: 2.72 µM
  TGI: 5.61 µM
[54]
  GI50: 2.32 µM
  TGI: 5.79 µM
[55]
  GI50: 3.57 µM
  TGI: 16.2 µM
[56]
  GI50: 2.12 µM
  TGI: 5.09 µM
[57]
  GI50: 1.63 µM
  TGI: 3.17 µM
